From ChEMBL document CHEMBL5726595, “Protein kinase inhibitor containing pyrrolopyridazine derivative” (2017)

Target: Hepatocyte growth factor receptor (Homo sapiens, UniProt P08581)
Experiment: Kinase Assay: The inhibitory effect of the compounds of the present invention on the activity of c-Met was confirmed as follows.Specifically, 250 μM G4Y1 peptide, which serves as a substrate for c-Met enzyme (2 ng/μL), and 50 μM ATP were subjected to an enzyme reaction in a reaction buffer (40 mM Tris-HCl (pH 7.5), 20 mM MgCl2, 0.1 mg/mL bovine serum albumin, and 50 μM DTT). The compounds prepared in Examples and comparative compounds were treated at various concentrations and reacted at room temperature for 1 hour, sequentially added with ADP-Glo™ Reagent and the Kinase detection reagent, and reacted at room temperature for 40 minutes and 30 minutes, respectively.

Chain of Hepatocyte growth factor receptor (P08581 whole entry): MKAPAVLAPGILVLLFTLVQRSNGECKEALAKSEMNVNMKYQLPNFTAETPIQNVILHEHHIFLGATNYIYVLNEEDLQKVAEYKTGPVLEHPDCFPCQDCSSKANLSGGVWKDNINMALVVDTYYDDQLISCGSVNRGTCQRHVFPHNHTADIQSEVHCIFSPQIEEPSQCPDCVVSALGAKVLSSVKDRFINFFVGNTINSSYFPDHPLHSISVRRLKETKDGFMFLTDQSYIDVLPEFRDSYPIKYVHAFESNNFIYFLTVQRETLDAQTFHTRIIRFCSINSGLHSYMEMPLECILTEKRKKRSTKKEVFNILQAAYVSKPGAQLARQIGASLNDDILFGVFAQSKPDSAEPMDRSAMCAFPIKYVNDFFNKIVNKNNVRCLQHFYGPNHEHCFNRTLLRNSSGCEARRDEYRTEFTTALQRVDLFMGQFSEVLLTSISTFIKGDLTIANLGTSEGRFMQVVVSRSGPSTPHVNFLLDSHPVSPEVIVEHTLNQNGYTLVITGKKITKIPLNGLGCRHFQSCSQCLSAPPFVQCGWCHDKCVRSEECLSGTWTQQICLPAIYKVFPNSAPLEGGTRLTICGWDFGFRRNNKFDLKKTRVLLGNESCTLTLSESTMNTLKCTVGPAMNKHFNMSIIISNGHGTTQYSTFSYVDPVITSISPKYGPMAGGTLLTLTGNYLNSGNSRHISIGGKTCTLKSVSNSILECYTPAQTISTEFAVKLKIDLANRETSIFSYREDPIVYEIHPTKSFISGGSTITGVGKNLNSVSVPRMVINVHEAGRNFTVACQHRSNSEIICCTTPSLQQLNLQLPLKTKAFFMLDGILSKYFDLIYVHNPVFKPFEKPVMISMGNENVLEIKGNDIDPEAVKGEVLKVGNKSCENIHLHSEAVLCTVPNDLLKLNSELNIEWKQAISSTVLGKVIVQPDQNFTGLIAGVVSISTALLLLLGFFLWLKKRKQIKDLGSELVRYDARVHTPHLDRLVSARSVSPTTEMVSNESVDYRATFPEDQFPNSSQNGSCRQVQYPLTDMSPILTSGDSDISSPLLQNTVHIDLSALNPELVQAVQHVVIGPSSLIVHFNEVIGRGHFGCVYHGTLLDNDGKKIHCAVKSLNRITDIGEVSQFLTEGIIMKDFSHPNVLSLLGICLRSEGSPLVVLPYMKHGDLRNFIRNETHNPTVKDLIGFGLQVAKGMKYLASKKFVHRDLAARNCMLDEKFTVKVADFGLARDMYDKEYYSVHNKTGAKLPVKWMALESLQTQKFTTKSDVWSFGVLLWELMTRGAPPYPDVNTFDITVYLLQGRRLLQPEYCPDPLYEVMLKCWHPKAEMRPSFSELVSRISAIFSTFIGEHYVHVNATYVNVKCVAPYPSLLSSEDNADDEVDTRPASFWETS

| IC50 [nM] | Structure (SMILES) |
| --- | --- |
| < 40 | N#Cc1cc(N)cc(-c2ccn3nccc(Oc4ccc(NC(=O)C5(C(=O)Nc6ccc(F)cc6)CC5)cc4F)c23)c1 |
| < 40 | CN(C)Cc1ccc(F)c(-c2ccn3nccc(Oc4ccc(NC(=O)C5(C(=O)Nc6ccc(F)cc6)CC5)cc4F)c23)c1 |
| < 40 | NCc1cccc(-c2ccn3nccc(Oc4ccc(NC(=O)C5(C(=O)Nc6ccc(F)cc6)CC5)cc4F)c23)c1 |
| < 40 | CN(C)Cc1ccc(Cl)c(-c2ccn3nccc(Oc4ccc(NC(=O)C5(C(=O)Nc6ccc(F)cc6)CC5)cc4F)c23)c1 |
| < 40 | CCNCc1cccc(-c2ccn3nccc(Oc4ccc(NC(=O)C5(C(=O)Nc6ccc(F)cc6)CC5)cc4F)c23)c1 |
| < 40 | CNCc1cccc(-c2ccn3nccc(Oc4ccc(NC(=O)C5(C(=O)Nc6ccc(F)cc6)CC5)cc4F)c23)c1 |
| < 40 | CN(C)Cc1cc(F)cc(-c2ccn3nccc(Oc4ccc(NC(=O)C5(C(=O)Nc6ccc(F)cc6)CC5)cc4F)c23)c1 |
| < 40 | CCNc1cccc(-c2ccn3nccc(Oc4ccc(NC(=O)C5(C(=O)Nc6ccc(F)cc6)CC5)cc4F)c23)c1 |
| < 40 | CN(C)Cc1cccc(-c2ccn3nccc(Oc4ccc(NC(=O)C5(C(=O)Nc6ccc(F)cc6)CC5)cc4F)c23)c1 |
| < 40 | N#CCc1cccc(-c2ccn3nccc(Oc4ccc(NC(=O)C5(C(=O)Nc6ccc(F)cc6)CC5)cc4F)c23)c1 |
